Experimental data taken from the Deep4Chem optical property database.

Test: solvent given as SMILES

O=C(O)CCCCCn1/c(=C/C=C/C2=[N+](CCCCCC(=O)O)c3cccc4cccc2c34)c2cccc3cccc1c32
emission maximum (in CO): 773 nm

COc1cc2c(cc1F)c(=O)c1cc(F)c(OC)cc1n2C(C)C
emission maximum (in CCO): 425 nm

CCOC(=O)C1=C(C(=O)OCC)C2(c3ccccc3-c3ccccc32)[C@@H](c2ccc(Cl)cc2)C=C2c3cc(OC)c(OC)cc3CCN21
emission maximum (in ClCCl): 445 nm

Cc1cc(C)c([B-]2(c3c(C)cc(C)cc3C)[O+]=P(c3ccccc3)(c3ccccc3)c3cc(-c4ccc(N(C)C)cc4)sc3-c3sc(-c4ccc(N(C)C)cc4)cc32)c(C)c1
emission maximum (in C1CCOC1): 552 nm

CCOC(=O)C1=CNC=C(C(=O)OCC)C1c1ccccc1
emission maximum (in C1CCOC1): 412 nm | emission maximum (in CO): 423 nm

COc1ccc(-c2nc(-c3cc(Cl)sc3C)c(-c3cc(Cl)sc3C)[nH]2)cc1
emission maximum (in CC#N): 489 nm

Cc1cc2c(cc1[N+](=O)[O-])NC(=O)CC(=O)N2
emission maximum (in CS(C)=O): 350 nm

Nc1ccc2c(c1)oc(=O)c1c(=O)oc3ccccc3c12
emission maximum (in CS(C)=O): 534 nm | emission maximum (in ClCCl): 498 nm

CC(=O)Nc1ccc2ccc3cccc4ccc1c2c34
emission maximum (in CC#N): 386 nm | emission maximum (in CCCCOCCCC): 385 nm | emission maximum (in CO): 383 nm

CN(C)c1ccc(C2=C3C=C(c4ccc(C=O)cc4)S[C@]34c3ccccc3[C@H]2c2ccccc24)cc1
emission maximum (in ClCCl): 645 nm

CC1=CC(C)=[N+]2C1=C(C)c1cccn1[B-]2(F)F
emission maximum (in CCCCCC): 498 nm | emission maximum (in CO): 497 nm | emission maximum (in ClCCl): 500 nm

CC(=O)[B-]1(C(C)=O)OC(c2ccccc2)=CC(c2ccc3ccccc3c2)=[O+]1
emission maximum (in CC#N): 510 nm | emission maximum (in ClC(Cl)(Cl)Cl): 419 nm

CCCCC(CC)Cn1c2cc(C#N)ccc2c2ccc(C#Cc3ccc4ccc5c(C#Cc6ccc7c8ccc(C#N)cc8n(CC(CC)CCCC)c7c6)ccc6ccc3c4c65)cc21 (stereo not drawn)
emission maximum (in ClCCl): 400 nm

CCCCCCc1ccc2c(/C=N/c3cc(/N=C/c4c(O)ccc5cc(CCCCCC)ccc45)cc(/N=C/c4c(O)ccc5cc(CCCCCC)ccc45)c3)c(O)ccc2c1
emission maximum (in C1CCOC1): 509 nm | emission maximum (in CC#N): 507 nm | emission maximum (in Cc1ccccc1): 507 nm | emission maximum (in ClCCl): 511 nm

F[B-]1(F)n2c(ccc2-c2ccccc2)C(c2ccc(I)cc2)=C2C=CC(c3ccccc3)=[N+]21
emission maximum (in ClC(Cl)Cl): 588 nm

O=Cc1c(O)c(-c2nc3ccccc3s2)cc2ccccc12
emission maximum (in C1CCOC1): 497 nm | emission maximum (in CC#N): 505 nm | emission maximum (in CC(C)=O): 507 nm | emission maximum (in CCO): 503 nm | emission maximum (in CCOC(C)=O): 501 nm | emission maximum (in CN(C)C=O): 538 nm | emission maximum (in CO): 525 nm | emission maximum (in Cc1ccccc1): 509 nm | emission maximum (in ClC(Cl)Cl): 505 nm | emission maximum (in ClCCl): 505 nm

Cc1cccc(C)c1Nc1ccc(/C=C/c2ccccc2)cc1
emission maximum (in CC#N): 424 nm | emission maximum (in CCCCCC): 375 nm

Nc1cccc2c1C(=O)c1ccccc1-2
emission maximum (in C1CCCCC1): 471 nm | emission maximum (in CC#N): 501 nm | emission maximum (in CCO): 521 nm | emission maximum (in c1ccccc1): 482 nm

N#Cc1ccc(-c2ccc3c(c2)c2cc(-c4ccc(C#N)cc4)ccc2c2c3nc(-c3ccc(-c4ccc(N(c5ccccc5)c5ccccc5)cc4)cc3)n2-c2ccccc2)cc1
emission maximum (in C1CCOC1): 468.68 nm | emission maximum (in CC#N): 519.93 nm | emission maximum (in CCCCCC): 421.18 nm | emission maximum (in CCOCC): 449.2 nm

B1C=Cc2ccc3ccccc3c2N1
emission maximum (in C1CCCCC1): 371 nm

CCCCCCC1(CCCCCC)c2cc(-c3nc(-c4ccc5c(c4)C(CCCCCC)(CCCCCC)c4cc(N6c7ccccc7Sc7ccccc76)ccc4-5)nc(-c4ccc5c(c4)C(CCCCCC)(CCCCCC)c4cc(N6c7ccccc7Sc7ccccc76)ccc4-5)n3)ccc2-c2ccc(N3c4ccccc4Sc4ccccc43)cc21
emission maximum (in C1CCOC1): 626 nm | emission maximum (in CCCCCC): 462 nm | emission maximum (in Cc1ccccc1): 529 nm | emission maximum (in ClCCl): 650 nm

CCN(CC)c1ccc2cc(/C=C/c3cccc[n+]3CCCS(=O)(=O)[O-])c(=O)oc2c1
emission maximum (in C1CCOC1): 641 nm | emission maximum (in CC#N): 634 nm | emission maximum (in CC(C)=O): 639 nm | emission maximum (in CS(C)=O): 642 nm | emission maximum (in Cc1ccccc1): 641 nm | emission maximum (in O): 627 nm | emission maximum (in OCC(O)CO): 625 nm

CC1(C)C(/C=C/C=C/C=C/C=C2/N(c3ccc(S(=O)(=O)[O-])cc3)c3ccc(S(=O)(=O)[O-])cc3C2(C)C)=[N+](c2ccc(S(=O)(=O)[O-])cc2)c2ccc(S(=O)(=O)[O-])cc21
emission maximum (in CO): 782 nm | emission maximum (in O): 779 nm

CN(C)c1ccc(-c2ccc(C#N)s2)s1
emission maximum (in CCO): 510 nm

COc1ccc2cc(-c3ccccc3CC#N)c(=O)oc2c1
emission maximum (in ClC(Cl)Cl): 409 nm

c1ccc(-c2ccc(-c3ccc(-c4ccccc4)cc3)cc2)cc1
emission maximum (in C1CCOC1): 368 nm | emission maximum (in C1COCCO1): 369 nm

Cc1cc(C)c2nc3c(=O)[nH]c(=O)[nH]c3nc2c1
emission maximum (in CC#N): 461 nm

CN(C)c1ccc(/C=C2\CCCC2=O)cc1
emission maximum (in CC#N): 488 nm | emission maximum (in CC(C)=O): 474 nm | emission maximum (in CC(C)O): 472 nm | emission maximum (in CCCCCC): 405 nm | emission maximum (in CCCCO): 479 nm | emission maximum (in CCCO): 479 nm | emission maximum (in CCO): 480 nm | emission maximum (in CCOC(C)=O): 448 nm | emission maximum (in CCOCC): 420 nm | emission maximum (in CN(C)C=O): 504 nm | emission maximum (in CO): 488 nm | emission maximum (in CS(C)=O): 493 nm | emission maximum (in Cc1ccccc1): 424 nm | emission maximum (in ClC(Cl)(Cl)Cl): 431 nm | emission maximum (in ClC(Cl)Cl): 469 nm | emission maximum (in ClCCl): 472 nm | emission maximum (in S=C=S): 422 nm | emission maximum (in c1ccccc1): 435 nm | emission maximum (in c1ccncc1): 480 nm

CC1=[N+]2C(=C(c3ccc(C(=C(c4ccccc4)c4ccccc4)c4ccccc4)cc3)c3ccc(/C=C/c4ccc(C(=C(c5ccccc5)c5ccccc5)c5ccccc5)cc4)n3[B-]2(F)F)C=C1
emission maximum (in C1CCOC1): 612 nm

CC1=[N+]2C(=C(c3ccc(C#N)cc3)c3ccc(C)n3[B-]2(F)F)C=C1
emission maximum (in C1CCCCC1): 539 nm | emission maximum (in C1CCOC1): 540 nm | emission maximum (in CC#N): 537 nm | emission maximum (in CCOC(C)=O): 537 nm | emission maximum (in CO): 538 nm | emission maximum (in Cc1ccccc1): 543 nm | emission maximum (in ClC(Cl)Cl): 543 nm

CC[N+]1(CC)CN2C(=N1)C(C(=O)O)=Cc1cc(SC)ccc12
emission maximum (in O): 515 nm

CCOC(=O)/N=c1/oc2cc(OC)ccc2cc1C#N
emission maximum (in ClCCl): 434 nm

CN1/C(=C/C=C(/C=C/c2sc3ccccc3[n+]2C)c2ccc(F)cc2)Sc2ccccc21
emission maximum (in CCO): 674 nm | emission maximum (in CO): 674 nm | emission maximum (in CS(C)=O): 681 nm | emission maximum (in O): 669 nm

COc1ccc(-c2c3ccccc3c(C#Cc3ccccc3)c3cc4cc(C)sc4cc23)cc1
emission maximum (in ClCCl): 504 nm

N#Cc1c(-n2c3ccccc3c3cc(I)ccc32)c(C#N)c(-n2c3ccccc3c3cc(I)ccc32)c(-n2c3ccccc3c3cc(I)ccc32)c1-n1c2ccccc2c2cc(I)ccc21
emission maximum (in Cc1ccccc1): 518 nm

O=C(O)C1=CC(=C/C=[N+]2/c3cc(O)c(C[C@@H]4O[C@H](CO)[C@@H](O)C(O)[C@H]4O)cc3C[C@H]2C(=O)O)C=C(C(=O)O)N1 (stereo partly drawn)
emission maximum (in CO): 588 nm | emission maximum (in O): 620 nm | emission maximum (in OCCO): 594 nm | emission maximum (in [2H]O[2H]): 620 nm

Cc1cc2ccccc2c2[nH]c3ccccc3c12
emission maximum (in ClCCl): 360 nm

Cc1ccc(C2=C3C=CC(c4ccccc4)=[N+]3[B-](F)(F)n3c(Cl)ccc32)cc1
emission maximum (in C1CCCCC1): 553 nm | emission maximum (in C1CCOC1): 555 nm | emission maximum (in C1COCCO1): 554 nm | emission maximum (in CCOC(C)=O): 551 nm | emission maximum (in CO): 549 nm | emission maximum (in Cc1ccccc1): 558 nm | emission maximum (in ClC(Cl)Cl): 555 nm

CCc1ccc(-c2nc(-c3ccc(-n4c5ccccc5c5ccccc54)cc3)cc(-c3ccc(-n4c5ccccc5c5ccccc54)cc3)n2)cc1
emission maximum (in C1CCOC1): 436 nm | emission maximum (in CN(C)C=O): 482 nm | emission maximum (in Cc1ccccc1): 402 nm | emission maximum (in ClC(Cl)Cl): 435 nm

Cc1cc(C)c(B(c2ccc(N(c3ccccc3)c3ccccc3)cc2)c2c(C)cc(C)cc2C)c(C)c1
emission maximum (in Cc1ccccc1): 437 nm

COc1ccc(-c2nc3c([nH]2)=C2C=C(Cl)S[C@@]2(C)[C@]2(C)SC(Cl)=CC=32)cc1
emission maximum (in CC#N): 378 nm

CCCC1(CCC)c2cc(-c3ccco3)ccc2-c2ccc(-c3ccco3)cc21
emission maximum (in C1CCCCC1): 377 nm

N#C/C(=C\c1ccc(-c2ccncc2)cc1)c1ccc(-c2ccncc2)cc1
emission maximum (in ClCCl): 460 nm

C[N+]1=C(/C=C/C=C2/N(CCC[N+](C)(C)C)c3ccccc3C2(C)C)C(C)(C)c2ccccc21
emission maximum (in CS(C)=O): 565 nm

c1ccc(-c2cnc3nn4ccccc4c3n2)cc1
emission maximum (in C1CCOC1): 449 nm

O=C1CC(c2cccc([N+](=O)[O-])c2)c2c(c3ccccc3c3nc4ccccc4nc23)O1 (stereo not drawn)
emission maximum (in CCCCCC): 417 nm | emission maximum (in CCOC(C)=O): 429 nm | emission maximum (in CN(C)C=O): 443 nm | emission maximum (in CO): 452 nm | emission maximum (in CS(C)=O): 452 nm | emission maximum (in ClC(Cl)Cl): 428 nm

Cc1ccccc1C
emission maximum (in C1CCCCC1): 291.38 nm

CC(C)(C)c1ccc(-c2sc3c(-c4ccc(C(C)(C)C)cc4)c4n(c3c2-c2ccc(C(C)(C)C)cc2)[B-](F)(F)[N+]2=Cc3c(-c5ccc(C(C)(C)C)cc5)c5sc(-c6ccc(C(C)(C)C)cc6)c(-c6ccc(C(C)(C)C)cc6)c5n3[B-](F)(F)[N+]2=C4)cc1
emission maximum (in CC#N): 627 nm | emission maximum (in CCCCCC): 626 nm | emission maximum (in CN(C)C=O): 636 nm | emission maximum (in Cc1ccccc1): 632 nm | emission maximum (in ClCCl): 631 nm

CCCC1(CCC)c2cc(C#N)ccc2-c2ccc(C#N)cc21
emission maximum (in C1CCCCC1): 324 nm

O=S1(=O)C2=C(c3ccccc31)C1(c3ccccc32)c2ccccc2-c2sc3ccccc3c21 (stereo not drawn)
emission maximum (in ClCCl): 459 nm

CC(C)(C)c1cc(-c2c3cc(c(-c4cc(C(C)(C)C)cc(C(C)(C)C)c4)c4ccc([nH]4)c(-c4ccc(Br)cc4)c4nc(c(-c5ccc(Br)cc5)c5ccc2[nH]5)C=C4)N=C3)cc(C(C)(C)C)c1
emission maximum (in ClCCl): 741 nm

CCCC1(CCC)c2cc(-c3ccc(-c4ccccc4)cc3)ccc2-c2ccc(-c3ccc4c(c3)C(CCC)(CCC)c3cc(-c5ccc(-c6ccccc6)cc5)ccc3-4)cc21
emission maximum (in Cc1ccccc1): 402 nm

FC(F)(F)c1ccccc1B1c2ccccc2Nc2ccccc21
emission maximum (in ClCCl): 401 nm
